# Laboratory results as given in US9624200B2, “Therapeutic piperazines” (DART NEUROSCIENCE (CAYMAN) LTD., priority 2006, dated 2017).
# Tested on: PDE4 from human U-937 cells
# Assay: PDE4 Inhibition Assay
# Assay type: biochemical
# Conditions: 1 μM cAMP, [3H]-cAMP, read-out: Potency Class (Inhibitory Concentration) in the PDE4 assay
# Experimental: PDE4 from human U-937 cells was used (see T. J. Torphy, et al., J. Pharmacol. Exp. Ther., 1992, 263, 1195-1205). Test compound at various concentration and/or vehicle was preincubated with 2 μg/ml enzyme in Tris-HCl buffer pH 7.5 for 15 minutes at 25° C. The reaction was initiated by addition of 1 1 μM cAMP and 0.01 1 μM [^3H]-cAMP for another 20 minute incubation period and terminated at 100° C. The resulting [^3H]-AMP was converted to [^3H]-adenosine by addition of snake venom nucleotidase and separated by AG1-X2 resin. An aliquot was removed and counted to determine the amount of [^3H]-adenosine formed. Results were converted to percent inhibition and IC so determined using XLfit from IDBS (ID Business Solutions Ltd., 2 Occam Court, Surrey Research Park, Guildford, Surrey, GU2 7QB UK).
# Representative compounds of the present invention were tested and found to have significant PDE4 inhibition in this assay.
row,IC50,Compound
1,> 1000 nM,"COc1ccc(N2CCN(C(C)=O)[C@@H](CN3CCOCC3)C2)cc1OC1CCCC1 [Compound 250, (S)-1-(4-(3-(cyclopentyloxy)-4-methoxyphenyl)-2-(morpholinomethyl)piperazin-1-yl)ethanone]"
2,< 200 nM,"COc1ccc(N2CCN(C(=O)[C@@H]3CNC(=O)N3)[C@@H](Cc3ccccc3)C2)cc1OC1CCCC1 [Compound 292, (S)-4-((S)-2-benzyl-4-(3-(cyclopentyloxy)-4-methoxyphenyl)piperazine-1-carbonyl)imidazolidin-2-one]"
3,< 200 nM,"COc1ccc(N2CCN(C(=O)Cc3nc(N)n[nH]3)[C@@H](Cc3ccccc3)C2)cc1OC(C)C [Compound 337, (S)-2-(3-amino-1H-1,2,4-triazol-5-yl)-1-(2-benzyl-4-(3-isopropoxy-4-methoxyphenyl)piperazin-1-yl)ethanone]"
4,< 200 nM,"COc1ccc(N2CCN(C(=O)Cc3n[nH]c(C)n3)[C@@H](Cc3ccccc3)C2)cc1OC(F)F [Compound 346, (S)-1-(2-benzyl-4-(3-(difluoromethoxy)-4-methoxyphenyl)piperazin-1-yl)-2-(5-methyl-1H-1,2,4-triazol-3-yl)ethanone]"
5,200 to 1000 nM,"COc1ccc(N2CCN(C(=O)CN3CC[C@H](O)C3)[C@@H](Cc3ccccc3)C2)cc1OC1CCCC1 [Compound 319, 1-((S)-2-benzyl-4-(3-(cyclopentyloxy)-4-methoxyphenyl)piperazin-1-yl)-2-((S)-3-hydroxypyrrolidin-1-yl)ethanone]"
6,> 1000 nM,"COc1ccc(N2CCN(Cc3sc(C)nc3C)[C@@H](Cc3ccccc3)C2)cc1OC1CCCC1 [Compound 359, (S)-5-((2-benzyl-4-(3-(cyclopentyloxy)-4-methoxyphenyl)piperazin-1-yl)methyl)-2,4-dimethylthiazole]"
7,200 to 1000 nM,"COc1ccc(N2CCN(C(C)=O)[C@@H](CN3Cc4ccccc4C3)C2)cc1OC1CCCC1 [Compound 252, (S)-1-(4-(3-(cyclopentyloxy)-4-methoxyphenyl)-2-(isoindolin-2-ylmethyl)piperazin-1-yl)ethanone]"
8,200 to 1000 nM,"COc1ccc(N2CCN(C(=O)C3(O)CC3)[C@@H](Cc3ccccc3)C2)cc1OC1CCCC1 [Compound 283, (S)-(2-benzyl-4-(3-(cyclopentyloxy)-4-methoxyphenyl)piperazin-1-yl)(1-hydroxycyclopropyl)methanone]"
9,< 200 nM,"COc1ccc(N2CCN(C(=O)Cc3c[nH]cn3)[C@@H](CC(C)C)C2)cc1OC1CCCC1 [Compound 364, (S)-1-(4-(3-(cyclopentyloxy)-4-methoxyphenyl)-2-isobutylpiperazin-1-yl)-2-(1H-imidazol-4-yl)ethanone]"
10,> 1000 nM,"COc1ccc(N2CCN(C(=O)c3cc[nH]n3)[C@@H](Cc3ccccc3)C2)cc1OC1CCCC1 [Compound 304, (S)-(2-benzyl-4-(3-(cyclopentyloxy)-4-methoxyphenyl)piperazin-1-yl)(1H-pyrazol-3-yl)methanone]"
11,200 to 1000 nM,"COc1ccc(N2CCN(C(=O)Cc3n[nH]c(=O)[nH]3)[C@@H](Cc3ccccc3)C2)cc1OC1CCCC1 [Compound 293, (S)-3-(2-(2-benzyl-4-(3-(cyclopentyloxy)-4-methoxyphenyl)piperazin-1-yl)-2-oxoethyl)-1H-1,2,4-triazol-5(4H)-one]"
12,200 to 1000 nM,"COc1ccc(N2CCN(CC(N)=O)[C@@H](Cc3ccccc3)C2)cc1OC(F)F [Compound 271, (S)-2-(2-benzyl-4-(3-(difluoromethoxy)-4-methoxyphenyl)piperazin-1-yl)acetamide]"
13,200 to 1000 nM,"COc1ccc(N2CCN(C(=O)c3c[nH]c(=O)[nH]3)[C@@H](Cc3ccccc3)C2)cc1OC1CCCC1 [Compound 288, (S)-4-(2-benzyl-4-(3-(cyclopentyloxy)-4-methoxyphenyl)piperazine-1-carbonyl)-1H-imidazol-2(3H)-one]"
14,200 to 1000 nM,"COc1ccc(N2CCN(C(=O)C3CNC(=O)C3)[C@@H](Cc3ccccc3)C2)cc1OC1CCCC1 (stereo partly drawn) [Compound 299, 4-((S)-2-benzyl-4-(3-(cyclopentyloxy)-4-methoxyphenyl)piperazine-1-carbonyl)pyrrolidin-2-one]"
15,200 to 1000 nM,"COc1ccc(N2CCN(C(=O)C3CCC(=O)N3)[C@@H](Cc3ccccc3)C2)cc1OC1CCCC1 (mixture of isomers) [Compound 285, (S)-5-(2-benzyl-4-(3-(cyclopentyloxy)-4-methoxyphenyl)piperazine-1-carbonyl)pyrrolidin-2-one]"
16,> 1000 nM,"CCc1nn(C(C)C)c2cc(N3CCN(CC(N)=O)[C@@H](Cc4ccccc4)C3)ccc12 [Compound 383, (S)-2-(2-benzyl-4-(3-ethyl-1-isopropyl-1H-indazol-6-yl)piperazin-1-yl)acetamide]"
17,200 to 1000 nM,"COc1ccc(N2CCN(C(=O)Cc3cncs3)[C@@H](Cc3ccccc3)C2)cc1OC1CCCC1 [Compound 291, (S)-1-(2-benzyl-4-(3-(cyclopentyloxy)-4-methoxyphenyl)piperazin-1-yl)-2-(thiazol-5-yl)ethanone]"
18,< 200 nM,"COc1ccc(N2CCN(CCC(N)=O)[C@@H](Cc3ccccc3)C2)cc1OC1CCCC1 [Compound 269, (S)-3-(2-benzyl-4-(3-(cyclopentyloxy)-4-methoxyphenyl)piperazin-1-yl)propanamide]"
19,> 1000 nM,"COc1ccc(N2CCN(C(=O)Cc3n[nH]c([N+](=O)[O-])n3)[C@@H](Cc3ccccc3)C2)cc1OC(C)C [Compound 336, (S)-1-(2-benzyl-4-(3-isopropoxy-4-methoxyphenyl)piperazin-1-yl)-2-(5-nitro-1H-1,2,4-triazol-3-yl)ethanone]"
20,> 1000 nM,"CCc1nn(C(C)C)c2cc(N3CCN(C(=O)CC(N)=O)[C@@H](Cc4ccccc4)C3)ccc12 [Compound 382, (S)-3-(2-benzyl-4-(3-ethyl-1-isopropyl-1H-indazol-6-yl)piperazin-1-yl)-3-oxopropanamide]"
21,200 to 1000 nM,"CC(C)C[C@H]1CN(c2ccc(OC(F)F)c(OC3CCCC3)c2)CCN1C(=O)Cc1c[nH]cn1 [Compound 366, (S)-1-(4-(3-(cyclopentyloxy)-4-(difluoromethoxy)phenyl)-2-isobutylpiperazin-1-yl)-2-(1H-imidazol-4-yl)ethanone]"
22,< 200 nM,"COc1ccc(N2CCN(C(=O)Cc3nc(C)n[nH]3)[C@@H](Cc3ccccc3)C2)cc1OC(C)C [Compound 330, (S)-1-(2-benzyl-4-(3-isopropoxy-4-methoxyphenyl)piperazin-1-yl)-2-(3-methyl-1H-1,2,4-triazol-5-yl)ethanone]"
23,200 to 1000 nM,COc1ccc(N2CCN(CC(=O)O)[C@@H](Cc3ccccc3)C2)cc1OC(C)C [Compound 266]
24,200 to 1000 nM,"COc1ccc(N2CCN(C(=O)Cc3ccccn3)[C@@H](Cc3ccccc3)C2)cc1OC(C)C [Compound 341, (S)-1-(2-benzyl-4-(3-isopropoxy-4-methoxyphenyl)piperazin-1-yl)-2-(pyridin-2-yl)ethanone]"
25,> 1000 nM,"COc1ccc(N2CCN(C(=O)Cc3c[nH]cn3)[C@@H](Cc3ccccc3)C2)cc1OC(F)F [Compound 347, (S)-1-(2-benzyl-4-(3-(difluoromethoxy)-4-methoxyphenyl)piperazin-1-yl)-2-(1H-imidazol-4-yl)ethanone]"
26,< 200 nM,"COc1ccc(N2CCN(C(=O)Cc3nc(C)cs3)[C@@H](Cc3ccccc3)C2)cc1OC1CCCC1 [Compound 308, (S)-1-(2-benzyl-4-(3-(cyclopentyloxy)-4-methoxyphenyl)piperazin-1-yl)-2-(4-methylthiazol-2-yl)ethanone]"

row,Compound,IC50
1,"COc1ccc(N2CCN(C(=O)Cc3n[nH]c(C)n3)[C@@H](CN3CCCC3)C2)cc1OC1CCCC1 [Compound 255, (S)-1-(4-(3-(cyclopentyloxy)-4-methoxyphenyl)-2-(pyrrolidin-1-ylmethyl)piperazin-1-yl)-2-(5-methyl-1H-1,2,4-triazol-3-yl)ethanone]",> 1000 nM
2,"NC(=O)CC(=O)N1CCN(c2ccc(OC(F)F)c(OC3CCC3)c2)C[C@@H]1Cc1ccccc1 [Compound 263, (S)-3-(2-benzyl-4-(3-cyclobutoxy-4-(difluoromethoxy)phenyl)piperazin-1-yl)-3-oxopropanamide]",< 200 nM
3,"COc1ccc(N2CCN(C(=O)C3(C(=O)O)CCC3)[C@@H](Cc3ccccc3)C2)cc1OC1CCC1 [Compound 315, (S)-1-(2-benzyl-4-(3-cyclobutoxy-4-methoxyphenyl)piperazine-1-carbonyl)cyclobutanecarboxylic acid]",< 200 nM
4,"COc1ccc(N2CCN(C(=O)CC(N)=O)[C@@H](Cc3ccccc3)C2)cc1OC1CCC1 [Compound 261, (S)-3-(2-benzyl-4-(3-cyclobutoxy-4-methoxyphenyl)piperazin-1-yl)-3-oxopropanamide]",< 200 nM
5,"O=C(Cc1c[nH]cn1)N1CCN(c2ccc(OC(F)F)c(OC3CCC3)c2)C[C@@H]1Cc1ccccc1 [Compound 344, (S)-1-(2-benzyl-4-(3-cyclobutoxy-4-(difluoromethoxy)phenyl)piperazin-1-yl)-2-(1H-imidazol-4-yl)ethanone]",< 200 nM
6,"COc1ccc(N2CCN(CC(N)=O)[C@@H](Cc3ccccc3)C2)cc1OC1CCC1 [Compound 268, (S)-2-(2-benzyl-4-(3-cyclobutoxy-4-methoxyphenyl)piperazin-1-yl)acetamide]",< 200 nM
7,"COc1ccc(N2CCN(C(=O)Cc3ccco3)[C@@H](Cc3ccccc3)C2)cc1OC1CCC1 [Compound 314, (S)-1-(2-benzyl-4-(3-cyclobutoxy-4-methoxyphenyl)piperazin-1-yl)-2-(furan-2-yl)ethanone]",200 to 1000 nM
